Data on 38 molecules can be found in publication PMC11855827, “High-Throughput Screening of Five Compound Libraries for Anthelmintic Activity and Toxicity Leads to the Discovery of Two Flavonoid Compounds” (International Journal of Molecular Sciences, 2025).

The test system of the assay is C. elegans. The settings on record: Table S2, C. elegans SS assay, 110 μM, averages of 4 data points.

Regarding `COc1ccc2[nH]cc(CCO)c2c1` [5‐Methoxytryptophol], the “Percentage of motility inhibition 0 h” value was 25% and the “Percentage of motility inhibition 24 h” value came out at 7%.
The corresponding values for `COc1cc(C)c2c(=O)c(-c3ccccc3)coc2c1` [5‐Methyl‐7‐methoxyisoflavone] are 16% and 0%.
As to `COc1ccc(-c2cc(=O)c3c(O)c(OC)c(OC)c(OC)c3o2)cc1OC` [5‐O‐Demethylnobiletin], the “Percentage of motility inhibition 0 h” value is on record as 26% and the “Percentage of motility inhibition 24 h” value was 29%.
For `O=C(O)c1cnc(O)cn1` [5‐hydroxypyr azine‐2‐carboxylic acid], the “Percentage of motility inhibition 0 h” value was 28% and the “Percentage of motility inhibition 24 h” value was found to be 1%.
The corresponding values for `COc1cc2c(=O)c(-c3ccc(O)cc3)coc2cc1O[C@@H]1O[C@H](COC(C)=O)[C@@H](O)[C@H](O)[C@H]1O` [6''‐O‐Acetylglycitin] are 4% and 5%.
Taken in the same sequence, the figures for `C=C[C@@H]1C2=CCOC(=O)C2=CO[C@H]1O[C@@H]1O[C@H](CO[C@@H]2O[C@H](CO)[C@@H](O)[C@H](O)[C@H]2O)[C@@H](O)[C@H](O)[C@H]1O` [6'-O-beta-D-Glucosylgentiopicroside] were 34% and 15%.
For `CCN1C[C@]2(C)CC[C@H](OC)C34C5C[C@@H]6CC[C@@](O)(C5C(=O)O6)C(C13)[C@@H](OC(=O)c1ccccc1)[C@@H]42` [6‐Benzoylheteratisine], the “Percentage of motility inhibition 0 h” value worked out at 16% and the “Percentage of motility inhibition 24 h” value is listed as 23%.
Regarding `COc1ccc(-c2cc(=O)c3c(OC)cc(OC)c(OC)c3o2)cc1` [6‐Demethoxytangeretin], the “Percentage of motility inhibition 0 h” value turned out to be 31% and the “Percentage of motility inhibition 24 h” value came out at 8%.
The corresponding values for `O=c1cc(-c2ccc(O)c(O)c2)oc2cc(O[C@@H]3O[C@H](CO)[C@@H](O)[C@H](O)[C@H]3O)c(O)c(O)c12` [6‐Hydroxyluteolin 7‐glucoside] are 0% and 10%.
`Cc1ccc(C(N)=O)cn1` [6‐Methylni cotinamid e]: the “Percentage of motility inhibition 0 h” value came out at 0% and the “Percentage of motility inhibition 24 h” value amounted to 0%.
Turning to `COc1cc(/C=C/C(=O)OC[C@H]2O[C@@H](O[C@@H]3[C@@H](O)[C@H](O)[C@@H](CO)O[C@H]3c3c(OC)cc4oc(-c5ccc(O)cc5)cc(=O)c4c3O)[C@H](O)[C@@H](O)[C@@H]2O)ccc1O` [6‴‐Feruloylspinosin], the “Percentage of motility inhibition 0 h” value is given as 9% and the “Percentage of motility inhibition 24 h” value is reported as 13%.
On to `COc1cc(O)c2c(=O)cc(-c3ccc(OC)c(OC)c3)oc2c1` [7,3',4'‐Tri‐O‐methylluteolin], for which the “Percentage of motility inhibition 0 h” value is 13% and the “Percentage of motility inhibition 24 h” value turned out to be 21%.
In the case of `O=c1cc(-c2ccc(O)cc2)oc2cc(O)ccc12` [7,4'‐Dihydroxyflavone], the “Percentage of motility inhibition 0 h” value is 5% and the “Percentage of motility inhibition 24 h” value amounted to 0%.
Taken in the same sequence, the figures for `COc1ccc(-c2cc(=O)c3c(O)cc(OC)cc3o2)cc1` [7,4'‐Di‐O‐methylapigenin] were 0% and 9%.
The corresponding values for `CC(=O)O[C@@]12CO[C@@H]1C[C@@H](O)[C@@]1(C)C(=O)[C@H](O)C3=C(C)[C@@H](OC(=O)[C@H](O)[C@@H](NC(=O)c4ccccc4)c4ccccc4)C[C@@](O)([C@@H](OC(=O)c4ccccc4)[C@H]21)C3(C)C` [7-Epi 10-desacetyl paclitaxel] are 0% and 26%.
Taken in the same sequence, the figures for `CC(C)CCC[C@@H](C)[C@H]1CC[C@H]2[C@@H]3C(=O)C=C4C[C@@H](O)CC[C@]4(C)[C@H]3CC[C@]12C` [7-Ketocholesterol] were 1% and 27%.
For `CO[C@H]1c2cc(C(C)C)c(O)c(O)c2[C@@]23CCCC(C)(C)[C@@H]2[C@@H]1OC3=O` [7-Methoxyrosmanol], the “Percentage of motility inhibition 0 h” value is recorded as 12% and the “Percentage of motility inhibition 24 h” value is 18%.
The corresponding values for `CC(=O)O[C@H]1C(=O)[C@@]2(C)[C@H]([C@H](OC(=O)c3ccccc3)[C@]3(O)C[C@H](OC(=O)[C@H](O)[C@@H](NC(=O)c4ccccc4)c4ccccc4)C(C)=C1C3(C)C)[C@]1(OC(C)=O)CO[C@@H]1C[C@@H]2O` [7-epi-Taxol] are 13% and 11%.
Taken in the same sequence, the figures for `C=C1[C@H](O)C[C@H]2[C@@H](/C=C(\C)C(=O)[C@@]3(O)C[C@H](C)[C@H](O)[C@@H]3[C@H]1O)C2(C)C` [7beta-Hydroxylathyrol] were 6% and 14%.
Consider `CC(=O)OCC1=C(C(=O)O)N2C(=O)[C@@H](N)[C@H]2SC1` [7‐Aminocephalosporanic acid], for which the “Percentage of motility inhibition 0 h” value is 3% and the “Percentage of motility inhibition 24 h” value came to 0%.
The corresponding values for `CCc1c2c(nc3ccccc13)-c1cc3c(c(=O)n1C2)COC(=O)[C@]3(O)CC` [7‐Ethylcamptothecin] are 11% and 22%.
Taken in the same sequence, the figures for `O=c1ccoc2cc(O)ccc12` [7‐Hydroxy‐4H‐chromen‐4‐one] were 0% and 8%.
Regarding `Cn1c[n+]([C@@H]2O[C@H](CO)[C@@H](O)[C@H]2O)c2nc(N)[nH]c(=O)c21` [7‐Methylguanosine], the “Percentage of motility inhibition 0 h” value is 0% and the “Percentage of motility inhibition 24 h” value worked out at 0%.
In the case of `C[C@@H]1CC[C@@H]2C(C(=O)O)=CO[C@@H](O[C@@H]3O[C@H](CO)[C@@H](O)[C@H](O)[C@H]3O)[C@H]12` [8-Epideoxyloganic acid], the “Percentage of motility inhibition 0 h” value came out at 2% and the “Percentage of motility inhibition 24 h” value amounted to 17%.
Taken in the same sequence, the figures for `C[C@H]1[C@H]2[C@H](O[C@@H]3O[C@H](CO)[C@@H](O)[C@H](O)[C@H]3O)OC=C(C(=O)O)[C@H]2C[C@@H]1O` [8-Epiloganic acid] were 4% and 15%.
For `CC(=O)O[C@@]1(C)C[C@@H](O)[C@]2(O)C=CO[C@@H](O[C@@H]3O[C@H](CO)[C@@H](O)[C@H](O)[C@H]3O)[C@@H]21` [8-O-Acetylharpagide], the “Percentage of motility inhibition 0 h” value was 10% and the “Percentage of motility inhibition 24 h” value stood at 29%.
Regarding `O=c1c2c3c(ccc2cc2n1CCc1cc4c(cc1-2)OCO4)OCO3` [8‐Oxocoptisine], the “Percentage of motility inhibition 0 h” value stood at 2% and the “Percentage of motility inhibition 24 h” value was found to be 30%.
In the case of `CC(=O)OC1CC2(O)C(OC(=O)c3ccccc3)C3C4(OC(C)=O)COC4CC(O)C3(C)C(O)C(OC(C)=O)C(=C1C)C2(C)C` (stereo not shown) [9-Dihydro-13-acetylbaccatin III], the “Percentage of motility inhibition 0 h” value amounted to 0% and the “Percentage of motility inhibition 24 h” value stood at 8%.
Regarding `CC[C@@]1(O)C(=O)OCc2c1cc1n(c2=O)Cc2cc3c(OC)cccc3nc2-1` [9‐Methoxycamptothecin], the “Percentage of motility inhibition 0 h” value worked out at 22% and the “Percentage of motility inhibition 24 h” value worked out at 0%.
Taken in the same sequence, the figures for `COc1ccc2c3ccnc4ccc(=O)n(c2c1)c43` [9‐Methoxycanthin‐6‐one] were 0% and 22%.
The corresponding values for `CC(=O)O[C@@]12CO[C@@H]1C[C@H](O[C@@H]1OC[C@@H](O)[C@H](O)[C@H]1O)[C@@]1(C)C(=O)[C@H](O)C3=C(C)[C@@H](OC(=O)[C@H](O)[C@@H](NC(=O)c4ccccc4)c4ccccc4)C[C@@](O)([C@@H](OC(=O)c4ccccc4)[C@H]21)C3(C)C` [10-Deacetyl-7-xylosyl paclitaxel] are 0% and 14%.
The corresponding values for `CC(=O)O[C@@]12CO[C@@H]1C[C@H](O)[C@@]1(C)C(=O)[C@H](O)C3=C(C)[C@@H](O)C[C@@](O)([C@@H](OC(=O)c4ccccc4)[C@H]21)C3(C)C` [10-Deacetylbaccatin III] are 4% and 5%.
Consider `CC(=O)O[C@@]12CO[C@@H]1C[C@H](O)[C@@]1(C)C(=O)[C@H](O)C3=C(C)[C@@H](OC(=O)[C@H](O)[C@@H](NC(=O)c4ccccc4)c4ccccc4)C[C@@](O)([C@@H](OC(=O)c4ccccc4)[C@H]21)C3(C)C` [10-Deacetyltaxol], for which the “Percentage of motility inhibition 0 h” value was 17% and the “Percentage of motility inhibition 24 h” value was determined as 0%.
On to `C=CCCCCCCCCC(=O)O` [10-Undecenoic acid], for which the “Percentage of motility inhibition 0 h” value worked out at 0% and the “Percentage of motility inhibition 24 h” value came to 6%.
Taken in the same sequence, the figures for `CC[C@@]1(O)C(=O)OCc2c1cc1n(c2=O)Cc2cc3cc(OC)ccc3nc2-1` [10‐Methoxycamptothecin] were 0% and 0%.
Taken in the same sequence, the figures for `C=CCCCCCCCCC(=O)[O-].C=CCCCCCCCCC(=O)[O-].[Zn+2]` [10‐Undecenoic acid (zinc salt)] were 43% and 35%.
Taken in the same sequence, the figures for `C[C@H](CC[C@@H](O[C@@H]1O[C@H](CO[C@@H]2O[C@H](CO)[C@@H](O)[C@H](O)[C@H]2O)[C@@H](O)[C@H](O)[C@H]1O[C@@H]1O[C@H](CO)[C@@H](O)[C@H](O)[C@H]1O)C(C)(C)O)[C@H]1CC[C@@]2(C)[C@@H]3CC=C4[C@@H](CC[C@H](O[C@@H]5O[C@H](CO[C@@H]6O[C@H](CO)[C@@H](O)[C@H](O)[C@H]6O)[C@@H](O)[C@H](O)[C@H]5O)C4(C)C)[C@]3(C)CC[C@]12C` [11-Deoxymogroside V] were 0% and 10%.
For the molecule `C[C@H]1[C@H](C)CC[C@]2(C)CC[C@]3(C)C(=CC(=O)[C@@H]4[C@@]5(C)CC[C@@H](O)[C@](C)(C(=O)O)[C@@H]5CC[C@]43C)[C@H]12` [11-Keto-beta-boswellic acid], the “Percentage of motility inhibition 0 h” value is given as 2% and the “Percentage of motility inhibition 24 h” value was 0%.
